According to publication PMC10977697 (PLOS ONE, 2024):
Bridges are numbered along the chain shown (N, C = ends). Where no end group is shown, it is not given here.

Legend:
PCSK9ΔCRD (PCSK9dCRD) = type: binding, human; conditions: for S/N: ratio of signal for target protein over BSA background; for ELISA: spot phage ELISA signal, DCP displayed on M13 p8
Her3-Fc = target: T1, Her3-Fc (Homo sapiens, UniProt P21860); assay: Spot phage ELISA, Her3-Fc; type: binding; conditions: for S/N: ratio of signal for target protein over BSA background; for ELISA: spot phage ELISA signal, DCP displayed on M13 p8
T1 construct: purchased R&D 348-RB
T1 sequence (P21860 20-643 limits assumed): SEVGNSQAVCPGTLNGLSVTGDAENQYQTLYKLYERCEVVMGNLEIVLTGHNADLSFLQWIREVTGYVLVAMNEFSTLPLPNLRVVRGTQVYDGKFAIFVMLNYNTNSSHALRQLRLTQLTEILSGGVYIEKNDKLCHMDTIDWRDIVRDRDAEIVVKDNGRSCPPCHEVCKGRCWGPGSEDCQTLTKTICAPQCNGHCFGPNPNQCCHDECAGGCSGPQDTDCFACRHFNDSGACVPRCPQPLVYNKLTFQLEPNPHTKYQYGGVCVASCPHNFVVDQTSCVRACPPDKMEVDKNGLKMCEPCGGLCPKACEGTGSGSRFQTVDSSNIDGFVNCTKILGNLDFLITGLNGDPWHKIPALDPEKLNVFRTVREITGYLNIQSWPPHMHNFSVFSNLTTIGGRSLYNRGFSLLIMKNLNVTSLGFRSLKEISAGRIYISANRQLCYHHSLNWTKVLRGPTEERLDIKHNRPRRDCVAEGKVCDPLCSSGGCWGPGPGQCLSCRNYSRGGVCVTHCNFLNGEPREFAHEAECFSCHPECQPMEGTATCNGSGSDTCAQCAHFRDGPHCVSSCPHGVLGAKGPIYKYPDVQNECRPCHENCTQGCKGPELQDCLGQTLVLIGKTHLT

HGFA = assay: Spot phage ELISA, HGFA; type: binding, human; conditions: for S/N: ratio of signal for target protein over BSA background, S/N > 2 positive; for ELISA: spot phage ELISA signal, DCP displayed on M13 p8, phage supernatant 1:3 in PBT, anti-M13-HRP, TMB
CD28-Fc = assay: Spot phage ELISA, CD28-Fc; type: binding; conditions: for ELISA: spot phage ELISA signal of phage-displayed DCP clone on CD28-Fc; for S/N: spot phage ELISA signal-to-noise on CD28-Fc

Sequence	S/N (PCSK9ΔCRD (PCSK9dCRD))	ELISA (PCSK9ΔCRD (PCSK9dCRD))	ELISA (CD28-Fc)	S/N (CD28-Fc)	further results
AFDCLGQCGRCDFHKLQCVFRSWQHYMYCNSSCTR (also: bicyclic or more (positions not given here)) [PCSK9dCRD AVR9 39]	9.1	2.46			
AFDCLGQCGRCDFHKLQCVGKFRSFQDYQYCNSSCTR (also: bicyclic or more (positions not given here)) [PCSK9dCRD AVR9 18]	28.6	2.52			
AFDCLGQCGRCDFHKLQCVNIEYYRDWDHYQYCNSSCTR (also: bicyclic or more (positions not given here)) [PCSK9dCRD AVR9 82]	27.6	2.13			
AFDCLGQCGRCDFHKLQCVWQTWQHYQYCNSSCTR (also: bicyclic or more (positions not given here)) [PCSK9dCRD AVR9 69]	23.5	2.51			
AFDCLGQCGRCDFHKLQCVWQTWSAYLYCNSSCTR (also: bicyclic or more (positions not given here)) [PCSK9dCRD AVR9 80]	2.9	2.10			
AFDCLGQCGRCDFHKLQCVWTSWGDYIKYGAYCNSSCTR (also: bicyclic or more (positions not given here)) [PCSK9dCRD AVR9 94]	10.9	2.09			
AFDCLGQCGRCDFHKLQCVYESYAHYQYCNSSCTR (also: bicyclic or more (positions not given here)) [PCSK9dCRD AVR9 54]	23.7	1.59			
AFDCLGQCGRCDFHKLQCVYKDWGHYLYCNSSCTR (also: bicyclic or more (positions not given here)) [PCSK9dCRD AVR9 34]	24.0	1.80			
AFDCLGQCGRCDFHKLQCVYKTWQDYQYCNSSCTR (also: bicyclic or more (positions not given here)) [PCSK9dCRD AVR9 53]	36.1	2.49			
AFDCLGQCGRCDFHKLQCVYQDWAHYVYCNSSCTR (also: bicyclic or more (positions not given here)) [PCSK9dCRD AVR9 44]	27.7	2.19			
AFDCLGQCGRCDFHKLQCVYQSWDHYQYCNSSCTR (also: bicyclic or more (positions not given here)) [PCSK9dCRD AVR9 14]	30.5	2.41			
AFDCLGQCGRCDFHKLQCVYRSWAHFQYCNSSCTR (also: bicyclic or more (positions not given here)) [PCSK9dCRD AVR9 11]	18.5	2.52			
AFDCLGQCGRCDFHKLQCVYSSWAHYQYCNSSCTR (also: bicyclic or more (positions not given here)) [PCSK9dCRD AVR9 57]	33.9	2.57			
AFDCLGQCGRCDFHKLQCVYTSWESYQYCNSSCTR (also: bicyclic or more (positions not given here)) [PCSK9dCRD AVR9 16]	19.6	1.80			
AFDCLGQCGRCDFHKLQCVYTSWQHYQYCNSSCTR (also: bicyclic or more (positions not given here)) [PCSK9dCRD AVR9 58]	35.3	2.67			
AFDCLGQCVPYVLSPYCNSSCTR [Her3-Fc AVR9 6]					S/N (Her3-Fc): 24.2; ELISA (Her3-Fc): 1.56
GCAESQHWWLWGCKQDSDCLAGCVCGPNGFCG (also: bicyclic or more (positions not given here)) [HGFA EET I-II 31]					S/N (HGFA): 22.4; ELISA (HGFA): 1.95
GCALSIHWWLWPCKQDSDCLAGCVCGPNGFCG (also: bicyclic or more (positions not given here)) [HGFA EET I-II 20]					S/N (HGFA): 13.5; ELISA (HGFA): 1.93
GCDEYWYECKQDSDCLAGCVCLIWGHCG (disulfide (positions not given here)) [CD28-Fc EET I-II 7]			1.32	20.3	
GCDLDLDWIWHECKQDSDCLAGCVCHQGNFCG (also: bicyclic or more (positions not given here)) [Her3-Fc EET I-II 9]					S/N (Her3-Fc): 25.7; ELISA (Her3-Fc): 1.44
GCFENWATCKQDSDCLAGCVCKIWKRCG (disulfide (positions not given here)) [CD28-Fc EET I-II 5]			1.34	19.6	
GCFWKRVHLCKQDSDCLAGCVCGWEASCG (disulfide (positions not given here)) [CD28-Fc EET I-II 15]			1.64	31.6	
GCHPDPWWCKQDSDCLARWCG [Her3-Fc EET I-II 37]					S/N (Her3-Fc): 43.4; ELISA (Her3-Fc): 3.17
GCHYNWDQCKQDSDCLAGCVCLIWYRCD (disulfide (positions not given here)) [CD28-Fc EET I-II 12]			1.06	20.1	

Sequence	S/N (PCSK9ΔCRD (PCSK9dCRD))	ELISA (PCSK9ΔCRD (PCSK9dCRD))	ELISA (CD28-Fc)	S/N (CD28-Fc)	further results
GCISKWFSCKQDSDCLAGCVCLLWQDCG (also: bicyclic or more (positions not given here)) [Her3-Fc EET I-II 67]					S/N (Her3-Fc): 20.1; ELISA (Her3-Fc): 1.54
GCIWGWAACKQDSDCLAGCVCQIWGRCG (disulfide (positions not given here)) [CD28-Fc EET I-II 3]			1.58	10.7	
GCMEHWEYCKQDSDCLAGCVCVIWGRCG (disulfide (positions not given here)) [CD28-Fc EET I-II 13]			1.52	27.2	
GCMMYWDECKQDSDCLAGCVCLIWNRCG (disulfide (positions not given here)) [CD28-Fc EET I-II 4]			1.85	34.2	
GCMNWGTFCKQDSDCLAGCVCALFGVCG (also: bicyclic or more (positions not given here)) [Her3-Fc EET I-II 66]					S/N (Her3-Fc): 27.8; ELISA (Her3-Fc): 1.59
GCMWDWDACKQDSDCLAGCVCSIWGRCG (disulfide (positions not given here)) [CD28-Fc EET I-II 2]			1.29	10.9	
GCMYHWEACKQDSDCLAGCICHIWIPCG (disulfide (positions not given here)) [CD28-Fc EET I-II 8]			1.07	16.4	
GCPRILIRCKQDSDCLAGCVCSGPPPCG (also: bicyclic or more (positions not given here)) [Her3-Fc EET I-II 47]					S/N (Her3-Fc): 22.4; ELISA (Her3-Fc): 1.64
GCPRILMRCKQDSDCLAGCVCAGPPPCG (also: bicyclic or more (positions not given here)) [Her3-Fc EET I-II 42]					S/N (Her3-Fc): 23.8; ELISA (Her3-Fc): 1.52
GCPRILMRCKQDSDCLAGCVCSGPPPCG (also: bicyclic or more (positions not given here)) [Her3-Fc EET I-II 7]					S/N (Her3-Fc): 24.5; ELISA (Her3-Fc): 1.60
GCPRILMRCKQDSDCLSGCVCSGPPPCG (also: bicyclic or more (positions not given here)) [Her3-Fc EET I-II 24]					S/N (Her3-Fc): 16.6; ELISA (Her3-Fc): 1.61
GCQLHYSQQGCKQYSULSGLVLWYTIHRLLRWRI [Her3-Fc EET I-II 4]					S/N (Her3-Fc): 21.1; ELISA (Her3-Fc): 1.45
GCQSHYSHQGCKQDSDCLAGYCG [Her3-Fc EET I-II 11]					S/N (Her3-Fc): 26.1; ELISA (Her3-Fc): 1.65
GCTQDWKTCKQDSDCLAGCVCVIWGRCG (disulfide (positions not given here)) [CD28-Fc EET I-II 6]			1.44	21.2	
GCVWNWVECKQDSDCLAGCVCYIWGRCG (disulfide (positions not given here)) [CD28-Fc EET I-II 1]			1.59	15.4	
GCWEKRKMCKQDSDCLAGCVCGWEISCG (disulfide (positions not given here)) [CD28-Fc EET I-II 14]			1.35	22.9	
GCWSSEKGLACKQDSDCLAGCVCDQTGSCG (also: bicyclic or more (positions not given here)) [Her3-Fc EET I-II 52]					S/N (Her3-Fc): 23.0; ELISA (Her3-Fc): 1.65
GCYLKRRHCKQDSDCLAGCVCGWEHTCG (disulfide (positions not given here)) [CD28-Fc EET I-II 9]			1.52	23.4	
GCYQKRVQCKQDSDCLAGCVCGWEAQCG (disulfide (positions not given here)) [CD28-Fc EET I-II 10]			1.41	15.0	
GCYTFWHKCKQDSDCLAGCVCLIWGRCG (disulfide (positions not given here)) [CD28-Fc EET I-II 11]			1.50	19.0	
GCYWKRQFKCKQDSYCLPGCVCGWEMSCG (disulfide (positions not given here)) [CD28-Fc EET I-II 16]			1.80	8.4	
GPTQSVGGNCGGIGYSGPTVCASGTTCQVLSPNFSICLPGAS (also: bicyclic or more (positions not given here)) [PCSK9dCRD CBD 49]	37.1	2.38			
GPTQSVGGVCGGIGYSGPTVCASGTTCQVLSPKTSICLPGAS (also: bicyclic or more (positions not given here)) [PCSK9dCRD CBD 40]	27.5	2.39			
GPTQSWQGRCGGIGYSGPTVCASGTTCQVLTPYWSECLPGAS (disulfide 10-27, 21-37 (inferred)) [Her3-Fc_CBD1]					S/N (Her3-Fc): 20.2; ELISA (Her3-Fc; listed as Her3-Fc CBD 3): 1.65
